Test results published in patent US20080221253A1, “Lipophilic Properties of 2-Acrylamido-2-Methylpropanesulfonic Acid” (THE LUBRIZOL CORPORATION, priority 2004, published 2008).

How the values were obtained:
[1] = Solubility of monomers, mixing 10% of the monomer with a variety of solvents; format: physicochemical; conditions: 10% by weight in solvent
[2] = octanol/water partition, P=Coctanol/Cwater; cited from earlier work

C=CC(=O)NC(C)(C)CS(=O)(=O)O [Example 7, 2-acrylamido-2-methylpropanesulfonic acid]
Solubility in Butyl Acetate [1]: insoluble
Solubility in Ethanol [1]: insoluble
Solubility in Ethyl Acetate [1]: insoluble
Solubility in Isopropanol [1]: not fully soluble
Solubility in Styrene [1]: insoluble
Solubility in Toluene [1]: insoluble
Solubility in Water [1]: clear

C=CC(=O)NC(C)(C)CS(=O)(=O)O.CCCCCCCCCCCCN(C)C [Example 8, 2-acrylamido-2-methylpropanesulfonic acid/N,N-dimethyl-n-dodecylamine salt]
Solubility in Butyl Acetate [1]: clear
Solubility in Ethanol [1]: clear
Solubility in Ethyl Acetate [1]: clear
Solubility in Isopropanol [1]: clear
Solubility in Styrene [1]: clear
Solubility in Toluene [1]: clear
Solubility in Water [1]: clear

C=CC(=O)NC(C)(C)CS(=O)(=O)O.CCCCC(CC)CN [Example 9, 2-acrylamido-2-methylpropanesulfonic acid/2-ethylhexylamine salt]
Solubility in Butyl Acetate [1]: trace oil
Solubility in Ethanol [1]: clear
Solubility in Ethyl Acetate [1]: clear
Solubility in Isopropanol [1]: clear
Solubility in Water [1]: clear

C=CC(=O)O [acrylic acid]
log P [2]: about 0.4

CCc1ccccc1 [ethylbenzene]
log P [2]: about 3.1
